# Molecular target: human recombinant H-PGDS (Homo sapiens, UniProt O60760)
# Experiment: Fluorescence intensity h-PGDS TBA enzyme assay
# Assay type: biochemical
# Conditions: Examples up to 622 (and 3a, 3b)
# Sequence of human recombinant H-PGDS (O60760 whole entry): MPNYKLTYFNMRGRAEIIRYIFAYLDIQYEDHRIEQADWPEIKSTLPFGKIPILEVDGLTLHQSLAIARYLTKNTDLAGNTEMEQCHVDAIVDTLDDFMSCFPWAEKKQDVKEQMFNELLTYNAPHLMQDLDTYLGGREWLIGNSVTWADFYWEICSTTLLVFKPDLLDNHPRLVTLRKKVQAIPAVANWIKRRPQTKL
row,SMILES,IC50
1,"O=C(NC1CCN(Cc2cnn(-c3ccc(F)cc3)c2)CC1)c1ccc(-c2cccc(F)c2)nc1 [Example 275, 6-(3-Fluorophenyl)-N-(1-{[1-(4-fluorophenyl)-1H-pyrazol-4-yl]methyl}piperidin-4-yl)nicotinamide]",5.49 nM
2,"CN(C)CC1(CN2CCC(NC(=O)c3ccc(-c4cccc(F)c4)nc3)CC2)CCCC1 [Example 277, N-[1-({1-[(Dimethylamino)methyl]cyclopentyl}methyl)piperidin-4-yl]-6-(3-fluorophenyl)nicotinamide]",5.72 nM
3,"CC(C)(C)OCCN1CCC(NC(=O)c2ccc(-c3cccc(F)c3)nc2)CC1 [Example 278, N-[1-(2-tert-Butoxyethyl)piperidin-4-yl]-6-(3-fluorophenyl)nicotinamide]",5.01 nM
4,"CC(C)(C)OC(=O)CCCN1CCC(NC(=O)c2ccc(-c3cccc(F)c3)nc2)CC1 [Example 279, tert-Butyl 4-[4-({[6-(3-fluorophenyl)pyridin-3-yl]carbonyl}amino)piperidin-1-yl]butanoate]",4.17 nM
5,"CNS(=O)(=O)c1ccc(CN2CCC(NC(=O)c3ccc(-c4cccc(F)c4)nc3)CC2)cc1 [Example 282, 6-(3-Fluorophenyl)-N-(1-{4-[(methylamino)sulfonyl]benzyl}piperidin-4-yl)nicotinamide]",0.629 nM
6,"Cc1cccc(CN2CCC(NC(=O)c3ccc(-c4cccc(F)c4)nc3)CC2)n1 [Example 283, 6-(3-Fluorophenyl)-N-{1-[(6-methylpyridin-2-yl)methyl]piperidin-4-yl}nicotinamide]",0.5 nM
7,"CCOC(=O)Cn1ccc2cc(CN3CCC(NC(=O)c4ccc(-c5cccc(F)c5)nc4)CC3)ccc21 [Example 284, Ethyl (5-{[4-({[6-(3-fluorophenyl)pyridin-3-yl]carbonyl}amino)piperidin-1-yl]methyl}-1H-indol-1-yl)acetate]",1.43 nM
8,"COc1cccc(C2(CN3CCC(NC(=O)c4ccc(-c5cccc(F)c5)nc4)CC3)CCOCC2)c1 [Example 286, 6-(3-Fluorophenyl)-N-(1-{[4-(3-methoxyphenyl)tetrahydro-2H-pyran-4-yl]methyl}piperidin-4-yl)nicotinamide]",1.21 nM
9,"O=C(NC1CCN(Cc2cnc(-c3ccccc3)s2)CC1)c1ccc(-c2cccc(F)c2)nc1 [Example 289, 6-(3-Fluorophenyl)-N-{1-[(2-phenyl-1,3-thiazol-5-yl)methyl]piperidin-4-yl}nicotinamide]",2.09 nM
10,"O=C(NC1CCN(Cc2ccccc2OC(F)F)CC1)c1ccc(-c2cccc(F)c2)nc1 [Example 292, N-{1-[2-(Difluoromethoxy)benzyl]piperidin-4-yl}-6-(3-fluorophenyl)nicotinamide]",0.465 nM
11,"CC(CCC#N)(CN1CCC(NC(=O)c2ccc(-c3cccc(F)c3)nc2)CC1)c1ccccc1 (stereo not drawn) [Example 293, N-[1-(4-Cyano-2-methyl-2-phenylbutyl)piperidin-4-yl]-6-(3-fluorophenyl)nicotinamide]",0.592 nM
12,"Cc1nc[nH]c1CN1CCC(NC(=O)c2ccc(-c3cccc(F)c3)nc2)CC1 [Example 296, 6-(3-Fluorophenyl)-N-{1-[(4-methyl-1H-imidazol-5-yl)methyl]piperidin-4-yl}nicotinamide]",1.4 nM
13,"COc1cc(CN2CCC(NC(=O)c3ccc(-c4cccc(F)c4)nc3)CC2)cc(OC)c1 [Example 297, N-[1-(3,5-Dimethoxybenzyl)piperidin-4-yl]-6-(3-fluorophenyl)nicotinamide]",1.25 nM
14,"CC(C)(C)CCN1CCC(NC(=O)c2ccc(-c3cccc(F)c3)nc2)CC1 [Example 298, N-[1-(3,3-Dimethylbutyl)piperidin-4-yl]-6-(3-fluorophenyl)nicotinamide]",0.939 nM
15,"O=C(NC1CCN(CCCc2ccccc2)CC1)c1ccc(-c2cccc(F)c2)nc1 [Example 301, 6-(3-Fluorophenyl)-N-[1-(3-phenylpropyl)piperidin-4-yl]nicotinamide]",1.16 nM
16,"Cc1cc(CN2CCC(NC(=O)c3ccc(-c4cccc(F)c4)nc3)CC2)ccc1F [Example 302, N-[1-(4-Fluoro-3-methylbenzyl)piperidin-4-yl]-6-(3-fluorophenyl)nicotinamide]",0.636 nM
17,"N#Cc1cc(CN2CCC(NC(=O)c3ccc(-c4cccc(F)c4)nc3)CC2)ccc1F [Example 303, N-[1-(3-Cyano-4-fluorobenzyl)piperidin-4-yl]-6-(3-fluorophenyl)nicotinamide]",0.662 nM
18,"Cc1ccc(-c2n[nH]cc2CN2CCC(NC(=O)c3ccc(-c4cccc(F)c4)nc3)CC2)cc1 [Example 307, 6-(3-Fluorophenyl)-N-(1-{[3-(4-methylphenyl)-1H-pyrazol-4-yl]methyl}piperidin-4-yl)nicotinamide]",0.784 nM
19,"O=C(NC1CCN(Cc2cc(=O)[nH]c(=O)[nH]2)CC1)c1ccc(-c2cccc(F)c2)nc1 [Example 310, N-{1-[(2,6-Dioxo-1,2,3,6-tetrahydropyrimidin-4-yl)methyl]piperidin-4-yl)-6-(3-fluorophenyl)nicotinamide]",4.78 nM

# Continued by falling IC50, values first:
row,IC50,SMILES
1,4.32 nM,"O=C(NC1CCN(CC2=C(Cl)c3cc(F)ccc3OC2)CC1)c1ccc(-c2cccc(F)c2)nc1 [Example 309, N-(1-[(4-Chloro-6-fluoro-2H-chromen-3-yl)methyl]piperidin-4-yl)-6-(3-fluorophenyl)nicotinamide]"
2,3 nM,"Cc1c(CN2CCC(NC(=O)c3ccc(-c4cccc(F)c4)nc3)CC2)cnn1C [Example 287, N-{1-[(1,5-dimethyl-1H-pyrazol-4-yl)methyl]piperidin-4-yl}-6-(3-fluorophenyl)nicotinamide]"
3,2.71 nM,"CCOc1cc(OC)ccc1CN1CCC(NC(=O)c2ccc(-c3cccc(F)c3)nc2)CC1 [Example 306, N-[1-(2-Ethoxy-4-methoxybenzyl)piperidin-4-yl]-6-(3-fluorophenyl)nicotinamide]"
4,2.7 nM,"COc1cc(C)cc(OC)c1CN1CCC(NC(=O)c2ccc(-c3cccc(F)c3)nc2)CC1 [Example 305, N-[1-(2,6-Dimethoxy-4-methylbenzyl)piperidin-4-yl]-6-(3-fluorophenyl)nicotinamide]"
5,2.57 nM,"CCn1nc(C)c(CN2CCC(NC(=O)c3ccc(-c4cccc(F)c4)nc3)CC2)c1C [Example 274, N-{1-[(1-Ethyl-3,5-dimethyl-1H-pyrazol-4-yl)methyl]piperidin-4-yl}-6-(3-fluorophenyl)nicotinamide]"
6,2.11 nM,"O=C(NC1CCN(Cc2ccc3[nH]ccc3c2)CC1)c1ccc(-c2cccc(F)c2)nc1 [Example 304, 6-(3-Fluorophenyl)-N-[1-(1H-indol-5-ylmethyl)piperidin-4-yl]nicotinamide]"
7,2.03 nM,"N#Cc1ccc(Oc2ccc(CN3CCC(NC(=O)c4ccc(-c5cccc(F)c5)nc4)CC3)cn2)cc1 [Example 308, N-(1-{[6-(4-Cyanophenoxy)pyridin-3-yl]methyl}piperidin-4-yl)-6-(3-fluorophenyl)nicotinamide]"
8,1.8 nM,"CC(C)(C)OC(=O)NCCCN1CCC(NC(=O)c2ccc(-c3cccc(F)c3)nc2)CC1 [Example 281, tert-Butyl {3-[4-({[6-(3-fluorophenyl)pyridin-3-yl]carbonyl}amino)piperidin-1-yl]propyl}carbamate]"
9,1.76 nM,"O=C(NC1CCN(Cc2c[nH]cn2)CC1)c1ccc(-c2cccc(F)c2)nc1 [Example 294, 6-(3-Fluorophenyl)-N-[1-(1H-imidazol-4-ylmethyl)piperidin-4-yl]nicotinamide]"
10,1.72 nM,"COC(=O)c1ccc2[nH]cc(CN3CCC(NC(=O)c4ccc(-c5cccc(F)c5)nc4)CC3)c2c1 [Example 311, Methyl 3-{[4-({[6-(3-fluorophenyl)pyridin-3-yl]carbonyl}amino)piperidin-1-yl]methyl}-1H-indole-5-carboxylate]"
11,1.53 nM,"COc1ccccc1C1(CN2CCC(NC(=O)c3ccc(-c4cccc(F)c4)nc3)CC2)CCOCC1 [Example 285, 6-(3-Fluorophenyl)-N-(1-{[4-(2-methoxyphenyl)tetrahydro-2H-pyran-4-yl]methyl}piperidin-4-yl)nicotinamide]"
12,1.25 nM,"O=C(NC1CCN(Cc2ccc3nsnc3c2)CC1)c1ccc(-c2cccc(F)c2)nc1 [Example 288, N-[1-(2,1,3-Benzothiadiazol-5-ylmethyl)piperidin-4-yl]-6-(3-fluorophenyl)nicotinamide]"
13,1.17 nM,"CCOc1cccc(CN2CCC(NC(=O)c3ccc(-c4cccc(F)c4)nc3)CC2)c1 [Example 291, N-[1-(3-Ethoxybenzyl)piperidin-4-yl]-6-(3-fluorophenyl)nicotinamide]"
14,1.11 nM,"CN(C)CCCOc1ccccc1CN1CCC(NC(=O)c2ccc(-c3cccc(F)c3)nc2)CC1 [Example 273, N-(1-{2-[3-(Dimethylamino)propoxy]benzyl}piperidin-4-yl)-6-(3-fluorophenyl)nicotinamide]"
15,0.851 nM,"CS(=O)(=O)Nc1ccc(CN2CCC(NC(=O)c3ccc(-c4cccc(F)c4)nc3)CC2)cc1 [Example 280, 6-(3-Fluorophenyl)-N-(1-{4-[(methylsulfonyl)amino]benzyl}piperidin-4-yl)nicotinamide]"
16,0.843 nM,"O=C(NC1CCN(Cc2ccc3ncccc3c2)CC1)c1ccc(-c2cccc(F)c2)nc1 [Example 290, 6-(3-Fluorophenyl)-N-[1-(quinolin-6-ylmethyl)piperidin-4-yl]nicotinamide]"
17,0.743 nM,"CCn1cc(CN2CCC(NC(=O)c3ccc(-c4cccc(F)c4)nc3)CC2)c(C)n1 [Example 276, N-{1-[(1-Ethyl-3-methyl-1H-pyrazol-4-yl)methyl]piperidin-4-yl}-6-(3-fluorophenyl)nicotinamide]"
18,0.506 nM,"COc1ccc(F)cc1CN1CCC(NC(=O)c2ccc(-c3cccc(F)c3)nc2)CC1 [Example 295, N-[1-(5-Fluoro-2-methoxybenzyl)piperidin-4-yl]-6-(3-fluorophenyl)nicotinamide]"
19,0.362 nM,"O=C(NC1CCN(Cc2ncc[nH]2)CC1)c1ccc(-c2cccc(F)c2)nc1 [Example 300, 6-(3-Fluorophenyl)-N-[1-(1H-imidazol-2-ylmethyl)piperidin-4-yl]nicotinamide]"
20,0.308 nM,"O=C(NC1CCN(Cc2ccccc2Cl)CC1)c1ccc(-c2cccc(F)c2)nc1 [Example 299, N-[1-(2-Chlorobenzyl)piperidin-4-yl]-6-(3-fluorophenyl)nicotinamide]"

# Reference: patent US7902373B2 (Pfizer Inc, priority 2006, dated 2011)
